Data set [1] can be described thus: Determination of cytotoxicity by MTT colorimetric assay. It counts as cell-based. The settings on record: African green monkey, uninfected Vero-E6 cells, 50 to 0.78 µM. Here is the method: Determination of cytotoxicity by MTT colorimetric assay: To evaluate the cytotoxicity profile of the selected compounds MTT assays were performed in Vero-E6 cells. Uninfected cells were incubated with a range of compound concentrations (from 50 to 0.78 µM) for forty-eight hours, time at which the MTT substrate [3-(4,5-dimethylthiazol-2-yl)-2,5-diphenyltetrazolium bromide] was added and the formation of formazan precipitates was evaluated two hours later, using a colorimetric readout. Vehicle-treated cells were used as reference (100%).
On the technique in general: Tetrazolium assays rely on reduction of a dye to a coloured formazan, in cell work by metabolically active cells.

The test system of data set [2] is SARS-CoV-2. As to the kind of experiment: Antiviral potency against SARS-CoV-2 in Vero-E6 cells (protection from virus-induced cytopathic effect / intracellular viral antigen accumulation). It counts as cell-based. Background: Cytopathic effects are the visible damage that an infection or toxin causes in cultured cells.
Data set [3] has as its system hCoV-229E-GFP. It counts as cell-based, Human coronavirus 229E.
The subject of data set [4] is SARS-CoV-2. As to the kind of experiment: Intracellular viral RNA quantitation by RT-qPCR. Type of data set: cell-based. The following applies: 15µM; for intracellular viral RNA levels (in words): as compared with the uninfected controls; for % RNA relative to DMSO: Vero-E6, MOI 0.001, 48 h, SARS-CoV-2 E gene normalised to 18S, DMSO set as 100%. A general note: In qPCR the cycle at which signal appears reflects the starting amount.

The mark [5] stands for this setting: Severe acute respiratory syndrome coronavirus 2, Vero C1008, SARS-CoV-2 strain NL/2020, Vero-E6 cells, mean, read-out: EC50 mean.
[6] abbreviates: Severe acute respiratory syndrome coronavirus 2, Vero C1008, SARS-CoV-2 strain NL/2020, Vero-E6 cells, mean, read-out: EC90 mean.

SMILES strings stand for the structures. Read-outs that look alike come from different tables or passages of the source.

The CC50 is the concentration giving 50% cytotoxicity. Higher therefore signals lower toxicity to the cells. The term EC50 denotes the concentration at which the effect is half-maximal. One may read the EC90 as the point of the concentration-response curve where the effect stands at 90%. For `CC(C)(C)OC(=O)NCCCC[C@H]1C(=O)NCC([C@H](Cc2cn(C(=O)OC(C)(C)C)c3ccccc23)NC(=O)OC(C)(C)C)N1Cc1ccccc1` (stereo in doubt) [Example 4, (5R,3S)-4-benzyl-5-((S)-1-(tert-butoxycarbonyl)amino-2-(1-(tert-butoxycarbonyl)(indol-3-yl))-ethyl)-3-(4-(tert-butoxycarbonyl)amino-butyl)-2-oxopiperazine], the CC50 at 48 h in data set [1] was greater than 50 µM. Also, the EC50 in data set [2] (Severe acute respiratory syndrome coronavirus 2, Vero C1008, read-out: EC50 mean) amounted to 1.6 µM. In data set [2] (Severe acute respiratory syndrome coronavirus 2, Vero C1008, read-out: EC90 mean), the EC90 came to 14.7 µM. In addition, in data set [3], the “% Reduction of hCoV-229E-GFP propagation” value worked out at 97%.
`CC(C)(C)OC(=O)NCCCC[C@@H]1N[C@H]([C@H](Cc2cn(C(=O)OC(C)(C)C)c3ccccc23)NC(=O)OC(C)(C)C)CNC1=O` [Example 2, (5S,3S)-5-((S)-1-(tert-butoxycarbonyl)amino-2-(1-(tert-butoxycarbonyl)(indol-3-yl))-ethyl)-3-(4-(tert-butoxycarbonyl)amino-butyl)-2-oxopiperazine] had a half-maximal cytotoxic concentration (CC50) at 48 h in data set [1] greater than 50 µM. Further, the EC50 in data set [2] (setting [5]) came out at 15.3 µM. Also, the EC90 in data set [2] (setting [6]) was 46.7 µM.
Consider `CC(C)(C)OC(=O)NCCCC[C@H]1C(=O)NC[C@H]([C@H](Cc2cn(C(=O)OC(C)(C)C)c3ccccc23)NC(=O)OC(C)(C)C)N1Cc1ccccc1` [Example 3, (5R,3S)-4-benzyl-5-((S)-1-(tert-butoxycarbonyl)amino-2-(1-(tert-butoxycarbonyl)(indol-3-yl))-ethyl)-3-(4-(tert-butoxycarbonyl)amino-butyl)-2-oxopiperazine], for which the CC50 at 48 h in data set [1] is greater than 50 µM. Further, the EC50 in data set [2] (setting [5]) turned out to be 6.33 µM. For the same compound, the EC90 in data set [2] (setting [6]) came out at 14.3 µM. In addition, in data set [3], the “% Reduction of hCoV-229E-GFP propagation” value was determined as 94%. In data set [4], the “intracellular viral RNA levels (in words)” value is “virtually undetectable levels” and the “% RNA relative to DMSO” value is recorded as 10^-2%.
With `CC(C)(C)OC(=O)CN1[C@@H]([C@H](Cc2cn(C(=O)OC(C)(C)C)c3ccccc23)NC(=O)OC(C)(C)C)CNC(=O)[C@@H]1CCCCNC(=O)OC(C)(C)C` [Example 5, (5R,3S)-5-((S)-1-(tert-butoxycarbonyl)amino-2-(1-(tert-butoxycarbonyl)-(indol-3-yl))-ethyl)-4(tert-butoxycarbonyl)methyl-3-(4-(tert-butoxycarbonyl)aminobutyl)-2-oxopiperazine], in data set [1], the CC50 at 48 h was greater than 50 µM. In addition, in data set [2] (setting [5]), the EC50 was determined as 1.93 µM. In data set [2] (setting [6]), the EC90 amounted to 7.33 µM. The “% Reduction of hCoV-229E-GFP propagation” value in data set [3] amounted to 94%.
`CC(C)(C)OC(=O)CN1[C@@H](CCCCNC(=O)OC(C)(C)C)C(=O)NC[C@H]1[C@H](Cc1cn(C(=O)OC(C)(C)C)c2ccccc12)NC(=O)OC(C)(C)C` [Example 6, (5S,3S)-5-((S)-1-(tert-butoxycarbonyl)amino-2-(1-(tert-butoxycarbonyl)-(indol-3-yl))-ethyl)-4(tert-butoxycarbonyl)methyl-3-(4-(tert-butoxycarbonyl)aminobutyl)-2-oxopiperazine] showed a CC50 at 48 h in data set [1] greater than 50 µM. Also, the EC50 in data set [2] (setting [5]) stood at 3.17 µM. Moreover, the EC90 in data set [2] (setting [6]) was found to be 9.67 µM. Further, the “% Reduction of hCoV-229E-GFP propagation” value in data set [3] is 98%. Besides, in data set [4], the “intracellular viral RNA levels (in words)” value was “virtually undetectable levels” and the “% RNA relative to DMSO” value is listed as 10^-4%.
